In PMC12658631, “Synthesis and Antitrypanosomal Activity of Novel 2‑Nitroimidazole-3,5-Disubstituted Isoxazole Derivatives with Diaryl Ether and Thioether Substituents” (ACS Omega, 2025):
Like-named read-outs stand apart in the source and are kept apart here.

Experiments:
[1] = system: T. cruzi intracellular amastigotes (Tulahuen lacZ strain); test: Antitrypanosomal assay, intracellular amastigotes in LLC-MK2 cells, CPRG readout; assay type: cell-based, Trypanosoma cruzi; conditions: for IC50: Trypanosoma cruzi, read-out: Amastigote IC50 (μM ± SD); for activity category (active / moderately active / inactive): category by amastigote IC50
Method: (§1) The cytotoxicity evaluation and the determination of the selectivity index (SI) were done on LLC-MK2 cells.
Initially, 5 × 10^3 LLC-MK2 cells/well were infected with trypomastigotes in 96-well plates at a parasite/cell ratio of 10:1. After 48 h, plates were washed twice with PBS before adding compounds in a serial dilution range of 100 μM to 0.78 μM in fresh RPMI 1640 medium (Sigma-Aldrich). As a control, infected untreated cells (100% infection control) were employed. Following 72 h of incubation, amastigote viability tests were performed using 50 μL of PBS containing 2% Triton X-100 and 200 μM CPRG. Tulahuen lacZ strain expressing galactosidase enzyme were used, which catalyzes the yellow reagent of CPRG into a red chromophore that can be easily detected by absorbance at 570 nm after 4 h at 37 °C (microplate reader – Synergy H1). The percentage of amastigotes inhibition (IC50) was calculated as 100-(absorbance of treated infected cells)/(absorbance mean of untreated infected cells) × 100.

Cytotoxicity assay (MTT) = assay type: cell-based; conditions: rhesus monkey, LLC-MK2 cells, read-out: LLC-MK2 CC50 (μM ± SD)
Method: as §1
To assess chemical cytotoxicity, MTT (3-(4,5-Dimethyl-2-thiazolyl)-2,5-diphenyl-2H-tetrazolium bromide, Sigma-Aldrich)-based kit reagents were employed. LLC-MK2 cells were incubated in 96-well plates for 48 h at a concentration of 5 × 10^3 cells/well. Cells were then washed twice with PBS (Sigma-Aldrich) before being incubated with compounds in a serial dilution from 200 μM to 1.56 μM in fresh RPMI 1640 medium (Sigma-Aldrich). After 72 h, 50 μL of MTT solution (2.0 mg/mL) was added to each well, and the plates were incubated for another 4 h at 37 °C. The resultant formazan crystals were dissolved in DMSO (50 μ L/well) and measured at 570 nm 30 min later in a Synergy H1 microplate reader. Cytotoxic concentration of 50% (CC50) was calculated based on a dose–response curve excluding DMSO cytotoxicity (>1%) of the untreated control.

[2] = system: T. cruzi amastigote forms; conditions: triazole with diphenyl ether substituent; ref Assunção et al.; read-out: IC50 against T. cruzi amastigote forms; cited from earlier work
[3] = LLC-MK2, T. cruzi intracellular amastigotes, Tulahuen lacZ strain, 72 h incubation
[4] = ratio of amastigote IC50 values

Row | SMILES | SI, selectivity index: CC50 of LLC-MK2 cells/IC50 of intracellular amastigotes [1] | IC50 [1, 3] [µM] | CC50 at 72 h (Cytotoxicity assay (MTT)) [µM] | further results
1 | COc1ccc(Oc2ccc(-c3cc(Cn4ccnc4[N+](=O)[O-])on3)cc2)cc1 [Compound 6g, 3-(4-(4-Methoxyphenoxy)phenyl)-5-((2-nitro-1H-imidazol-1-yl)methyl)isoxazole] | >155.3 | 0.64 ± 0.05 | > 100 | 
2 | O=[N+]([O-])c1nccn1Cc1cc(-c2ccc(Oc3ccc(Cl)cc3)cc2)no1 [Compound 6c, 3-(4-(4-Chlorophenoxy)phenyl)-5-((2-nitro-1H-imidazol-1-yl)methyl)isoxazole] | >99.0 | 1.01 ± 1.13 | > 100 | fold less active than 6b [1, 4]: 2 fold
3 | COc1ccc(Oc2ccc(-c3cc(Cn4ccnc4[N+](=O)[O-])on3)cc2F)cc1 [Compound 6n, 3-(3-Fluoro-4-(4-methoxyphenoxy)phenyl)-5-((2-nitro-1H-imidazol-1-yl)methyl)isoxazole] | >28.2 | 3.54 ± 0.21 | > 100 | fold less activity than 6g [1, 4]: 5.5 fold
4 | O=[N+]([O-])c1nccn1Cc1cc(-c2ccc(Oc3ccc(Cl)c(Cl)c3)c(F)c2)no1 [Compound 6k, 3-(4-(3,4-Dichlorophenoxy)-3-fluorophenyl)-5-((2-nitro-1H-imidazol-1-yl)methyl)isoxazole] | >11.8 | 8.5 ± 2.06 | > 100 | activity category (active / moderately active / inactive) [1]: moderate activity
5 | O=C(Cn1ccnc1[N+](=O)[O-])NCc1ccccc1 [BZN, benznidazole, reference compound] | >17.6 | 5.67 ± 0.83 | > 100 | 
6 | O=[N+]([O-])c1nccn1Cc1cc(-c2ccc(Oc3ccc(OC(F)(F)F)cc3)c(F)c2)no1 [Compound 6l, 3-(3-Fluoro-4-(4-(trifluoromethoxy)phenoxy)phenyl)-5-((2-nitro-1H-imidazol-1Yl)methyl)isoxazole] | >14.7 |  |  | IC50 ([1]; TULAHUEN, LLC-MK2, 72 h): 3.77 ± 0.07 µM
7 | O=[N+]([O-])c1nccn1Cc1cc(-c2ccc(Oc3ccc(F)cc3)cc2)no1 [Compound 6b, 3-(4-(4-Fluorophenoxy)phenyl)-5-((2-nitro-1H-imidazol-1-yl)methyl)isoxazole] | >199.4 | 0.5 ± 0.51 | > 100 | 
8 | Cc1ccc(Oc2ccc(-c3cc(Cn4ccnc4[N+](=O)[O-])on3)cc2F)cc1 [Compound 6m, 3-(3-Fluoro-4-(P-tolyloxy)phenyl)-5-((2-nitro-1H-imidazol-1-yl)methyl)isoxazole] | >13.5 | 7.41 ± 3.22 | > 100 | fold less active than 6f [1, 4]: 4 fold
9 | O=[N+]([O-])c1nccn1Cc1cc(-c2ccc(Oc3ccc(Cl)c(Cl)c3)cc2)no1 [Compound 6d, 3-(4-(3,4-Dichlorophenoxy)phenyl)-5-((2-nitro-1H-imidazol-1-yl)methyl)isoxazole] | >35.9 | 2.79 ± 0.93 | > 100 | activity category (active / moderately active / inactive) [1]: active
10 | O=[N+]([O-])c1nccn1Cc1cc(-c2ccc(Oc3ccc(F)cc3)c(F)c2)no1 [Compound 6i, 3-(3-Fluoro-4-(4-fluorophenoxy)phenyl)-5-((2-nitro-1H-imidazol-1-yl)methyl)isoxazole] | >70.4 | 1.42 ± 0.42 | > 100 | fold less active than 6b [1, 4]: 2.8 fold
11 | O=[N+]([O-])c1nccn1Cc1cc(-c2ccc(Oc3ccc(Cl)cc3)c(F)c2)no1 [Compound 6j, 3-(4-(4-Chlorophenoxy)-3-fluorophenyl)-5-((2-nitro-1H-imidazol-1-yl)methyl)isoxazole] | >64.1 | 1.56 ± 0.69 | > 100 | 
12 | O=[N+]([O-])c1nccn1Cc1cc(-c2ccc(Oc3ccc(OC(F)(F)F)cc3)cc2)no1 [Compound 6e, 5-((2-Nitro-1H-imidazol-1-yl)methyl)-3-(4-(4-(trifluoromethoxy)phenoxy)phenyl)isoxazole] | >80.1 | 1.25 ± 0.71 | > 100 | 
13 | O=[N+]([O-])c1nccn1Cc1cc(-c2ccc(Oc3ccccc3)c(F)c2)no1 [Compound 6h, 3-(3-Fluoro-4-phenoxyphenyl)-5-((2-nitro-1H-imidazol-1-yl)methyl)isoxazole] | >31.4 | 3.18 ± 2.18 | > 100 | activity category (active / moderately active / inactive) [1]: active
14 | Cc1ccc(Sc2ccc(-c3cc(Cn4ccnc4[N+](=O)[O-])on3)cc2)cc1 [Compound 6q, 5-((2-Nitro-1H-imidazol-1-yl)methyl)-3-(4-(P-tolylthio)phenyl)isoxazole] | >5.8 | 17.1 ± 0.24 | > 100 | activity category (active / moderately active / inactive) [1]: moderate activity
15 | O=[N+]([O-])c1nccn1Cc1cc(-c2ccc(Oc3ccccc3)cc2)no1 [Compound 6a, 5-((2-Nitro-1H-imidazol-1-yl)methyl)-3-(4-phenoxyphenyl)isoxazole] | >82.2 | 1.22 ± 0.73 | > 100 | fold more active than the reference drug benznidazole (BZN) [1, 4]: 4.6 fold; fold more active against amastigote forms than its triazole analog ([1]; ratio of amastigote IC50 values, comparator is a literature value): 5.4 fold
16 | O=[N+]([O-])c1nccn1Cc1cc(-c2ccc(Sc3ccc(Cl)cc3)cc2)no1 [Compound 6p, 3-(4-((4-Chlorophenyl)thio)phenyl)-5-((2-nitro-1H-imidazol-1-yl)methyl)isoxazole] | >9.0 | 11.1 ± 0.16 | > 100 | 
17 | O=[N+]([O-])c1nccn1Cc1cc(-c2ccc(Sc3ccccc3)cc2)no1 [Compound 6o, 5-((2-Nitro-1H-imidazol-1-yl)methyl)-3-(4-(phenylthio)phenyl)isoxazole] | >4.9 | 20.6 ± 0.98 | > 100 | activity category (active / moderately active / inactive) [1]: moderate activity
18 | Cc1ccc(Oc2ccc(-c3cc(Cn4ccnc4[N+](=O)[O-])on3)cc2)cc1 [Compound 6f, 5-((2-Nitro-1H-imidazol-1-yl)methyl)-3-(4-(P-tolyloxy)phenyl)isoxazole] | >56.5 | 1.77 ± 0.24 | > 100 | 
19 | O=[N+]([O-])c1nccn1Cc1cn(-c2ccc(Oc3ccccc3)cc2)nn1 [Compound 4b] |  |  |  | IC50 [2]: 6.6 µM
